These results are taken from patent EP4458353A1, “ANTICARIOGENIC SYNERGETIC COMPOSITION FOR ORAL CARE” (SkyLab AG, priority 2023, dated 2024).

SMILES strings stand for the structures. Values after ≈ are worked out from the molar mass of the structure shown. Read-outs that look alike come from different tables or passages of the source.

One assay has as its system S. mutans. The settings on record: naringenin at concentration 200 µg/mL; cited from earlier work.
The test system of another assay is S. mutans biofilms. In words: Biofilm formation on hydroxyapatite disks (CFU in resuspended biofilm). It counts as cell-based. Particulars: for %N Control: percentage of S. mutans CFU on the disk in control experiment; for N S.mutans (CFU/mL): resuspended biofilm from hydroxyapatite disks, 64h incubation. The method, then: Example ? 6. Anti-biofilm activity of individual substances selected from naringenin, guava leaf extract, and lysozyme, or the composition thereof, is assessed from the rate of biofilm formation on hydroxyapatite disks, with the use of the following procedure: • 1) Prepare the heart-brain broth (DM106D, Mast Group Ltd., U.K.) and Columbian agar supplemented with defibrinated blood (OOO "GEM" Cat. No BP-023) in accordance with the manufacturer's instruction • 2) All stages of preparation of the bacterial culture suspensions were similar to those described in Example 1. • 3) Prepare saliva, which is required for biofilm formation and provides the bacteria adhesion to the surface of hydroxyapatite disks. […] Centrifuge the collected saliva at 12 000 rpm for 30 minutes at 4°C. Harvest the supernatant into the clean tube and subject to pasteurization at 65°C for 30 minutes followed by one more centrifugation.
The efficacy of saliva pasteurization is assessed from direct inoculation on Columbian blood agar. The plates are incubated under aerobic and anaerobic conditions at 37°C for 72 hours. The saliva is considered sterile if no growth of bacterial and fungal colonies is observed within 72 hours of observation.
Store the saliva at temperature -80 °C before the use. • 4) To form the salivary film on the surface of hydroxyapatite disk put three sterile disks (sterilization by autoclaving at 132 °C for 20 min) in each of 9 Petri dishes 40 mm in diameter abd incubate in 3 mL of the pasteurized saliva at room temperature for 4 hours with gentle shaking on orbital shaker. Then remove the saliva and add 3 mL of nutritive medium containing 1.2 mL of heart-brain broth; 1.2 mL of pasteurized saliva; 0.6 mL of S. mutans suspension at concentration of 10^6 CFU/mL into the Petri dish. The formation of S. mutans biofilm on the disk surface is achieved at 37°C under the atmosphere of 5 % CO2 in the environment, with gentle shaking on orbital shaker for 16 hours. • 5) After 16-hour incubation remove old nutritive medium from the dishes and add a fresh portion of heart-brain broth containing S. mutans suspension and the pasteurized saliva. Add the active substances selected from naringenin, guava leaf extract and lysozyme or combination thereof to final concentration 0.1 or 1.0 mg/mL. Repeat the procedure of medium replacement twice daily within […] and 8 h after the first change. • 6) To remove the biofilm formed in the disk surface take the disks away from Petri dishes after the incubation for 2 days and rinse in the large volume of PBS (pH 7.2). Then place the disks into sterile Petri dishes with 3 mL of PBS (pH 7.2) and shake vigorously on the orbital shaker for 30 minutes. […]

In another assay the test system is Streptococcus mutans. As to the kind of experiment: Minimum inhibitory concentration (MIC), serial two-fold dilution with resazurin test. The settings on record: Streptococcus mutans, S. mutans. It counts as cell-based. A general note: The colour change of resazurin is a common sign of viable cells or microbes.
For a further assay, the target named is T1, lysozyme (Gallus gallus, UniProt P00698).
T1 construct: Lysozyme used in all tests was 99% anhydrous lysozyme hydrochloride isolated from the egg yolks; from tissue; host or cells: eggs ('egg yolks' as printed)
T1 sequence (P00698 19-147): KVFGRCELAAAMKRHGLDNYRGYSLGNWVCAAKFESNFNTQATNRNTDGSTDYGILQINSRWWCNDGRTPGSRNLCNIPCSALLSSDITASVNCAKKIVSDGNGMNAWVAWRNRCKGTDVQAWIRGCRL
As to the kind of experiment: Lysozyme and naringenin compatibility: lysozyme activity by fall of optical density of Micrococcus lysodeicticus cells. It counts as biochemical. Particulars: added to the buffered medium with lysozyme; 30, 60, 120 minutes at 37 degrees. The method, then: Example ? 8. Assessment of lysozyme and naringenin compatibility Potential impact of naringenin on lysozyme activity was assessed through the measurement of lysozyme activity by the method described in the patent RU2294373C2. To determine the lysozyme activity the optical density values obtained for the control wells are subtracted from the optical density values obtained for the wells, which were incubated in the presence of lysozyme. The bacterial cells Micrococcus lysodeicticus in amount corresponding to the optical density 0.6 are mixed with the equal volume of buffer containing lysozyme, naringenin, guava leaf CO2 extract, while no lysozyme is added into the control well. Then the plate is incubated for 30, 60, 120 minutes at 37 degrees, and the optical density is measured. The fall of optical density indicates the lysozyme activity. Then the final density value is subtracted from the initial density value followed by normalization for incubation time and the enzyme concentration in accordance with the procedure described in RU2294373C2.

Broadly, the MIC is the least concentration at which growth counts as inhibited. In the case of `O=C1C[C@@H](c2ccc(O)cc2)Oc2cc(O)cc(O)c21` [Naringenin, naringenin], the biofilm formation entry in the assay on S. mutans is listed as “virtually completely inhibited”. Also, the entries for the “%N Control” value with S. mutans biofilms (Csubstance 0.1 mg/mL) and in the assay on S. mutans biofilms (Csubstance 1.0 mg/mL) were 66.7% and 50.0%, respectively. Also, the entries for the “N S.mutans (CFU/mL)” value in the assay on S. mutans biofilms (Csubstance 0.1 mg/mL) and in the assay with S. mutans biofilms (Csubstance 1.0 mg/mL) were 2.8·10^6 CFU/mL and 2.1·10^6 CFU/mL, respectively. In addition, the MIC in the assay on Streptococcus mutans (24 h at 37 °C, read-out: MIC value in individual replicate Replicate 1) is over 1600 µg/mL; in the assay with Streptococcus mutans (24 h at 37 °C, read-out: MIC value in individual replicate Replicate 2) it was over 1600 µg/mL; with Streptococcus mutans (24 h at 37 °C, read-out: MIC value in individual replicate Replicate 3), 800 µg/mL (≈ 2940 µM); in the assay with Streptococcus mutans (24 h at 37 °C, read-out: MIC value in individual replicate Replicate 4) it was 400 µg/mL (≈ 1470 µM); in the assay on Streptococcus mutans (24 h at 37 °C, read-out: MIC value in individual replicate Replicate 5) it was 800 µg/mL (≈ 2940 µM); in the assay with Streptococcus mutans (median of 5 replicates, read-out: MIC Median value), 800 µg/mL (≈ 2940 µM). The “effect on lysozyme activity” value at lysozyme is “neither affect lysozyme nor decrease the lysozyme activity”.
